Reference: publication PMC6348443 (Journal of Medicinal Chemistry, 2018)
Where a name gives a salt, the structure may show the parent alone.

Assays:
MOR [1] = target: T1, MOR (Homo sapiens, UniProt P35372); assay: [35S]GTPγS binding assay, CHO-hMOR membranes; format: biochemical; conditions: for Emax: read-out: MOR % stim.; for EC50: [35S]GTPγS, CHO human MOR membranes, read-out: MOR EC50
T1 construct: host or cells: CHO (CHO-hMOR)
Description: (§1) Efficacies are presented as percentage stimulation relative to the standard full agonists, [D-Ala^2,N-Me-Phe4,Gly-ol^5]enkephalin (DAMGO for MOR),[53] [D-Pen^2,D-Pen^5]enkephalin (DPDPE for DOR)[54] and N-methyl-2-phenyl-N-[(5R,7S,8S)-7-(pyrrolidin-1-yl)-1-oxaspiro[4.5]dec-8-yl]acetamide (U69,593 for KOR).[55]
(§2) Membranes from CHO cells expressing human opioid receptors were prepared in 50 mM Tris-HCl buffer (pH 7.7) according to a previously described procedure.[64] Cells expressing human opioid receptors grown at confluence were removed from the culture plates by scraping, homogenized in 50 mM Tris buffer (pH 7.7), using a Polytron homogenizer, then centrifuged once and washed by an additional centrifugation at 27 000g for 15 min, at 4 °C. The final pellet was resuspended in Tris buffer and stored at −80 °C until use. Protein content of brain and cell membrane preparation homogenates was determined by the method of Bradford using bovine serum albumin as the standard.[65]
(§3) Binding of [^35S]GTPγS to membranes from CHO cells stably expressing the human opioid receptors was conducted according to the published procedures.[49],[64] Cell membranes (5–10 μg) in 20 mM HEPES, 10 mM MgCl2, and 100 mM NaCl (pH 7.4) were incubated with 0.05 nM [^35S]GTPγS, 10 μM GDP, and various concentrations of test compound in a final volume of 1 mL, for 60 min at 25 °C. Nonspecific binding was determined using 10 μM GTPγS, and the basal binding was determined in the absence of test ligand. Samples are filtered over glass Whatman glass GF/B fiber filters and counted as described for binding assays. All experiments were performed in duplicate and repeated at least three times.
(§4) Data were analyzed and graphically processed using the GraphPad Prism 5.0 Software (GraphPad Prism Software Inc., San Diego, CA). For in vitro assays, inhibition constant (Ki in nM), potency (EC50 in nM), and efficacy (% stimulation) values were determined from concentration–response curves by nonlinear regression analysis. The Ki values were determined by the method of Cheng and Prusoff.[66] In the [^35S]GTPγS binding assays, efficacy was determined relative to the reference full opioid agonists, DAMGO (MOR), DPDPE (DOR), and U69,593 (KOR). In vitro data are presented as mean ± SEM of three to four independent experiments each performed in duplicate. […] Each experimental group included six to seven mice. Data were statistically evaluated using one-way ANOVA with Tukey’s post hoc test for multiple comparisons with significance set at P < 0.05.

KOR [2] = target: T2, KOR (Homo sapiens, UniProt P41145); assay: [35S]GTPγS binding assay, CHO-hKOR membranes; format: biochemical; conditions: for EC50: [35S]GTPγS, CHO human KOR membranes, read-out: KOR EC50; for Emax: relative to reference full agonist U69,593, read-out: KOR % stim.; for functional profile at KOR (full/partial agonist): partial agonist <85% of the response to U69,593
T2 construct: host or cells: CHO (CHO-hKOR)
Description: as §1, §2, §3, §4

DOR [3] = target: T3, DOR (Homo sapiens, UniProt P41143); assay: competition radioligand binding, CHO cell membranes expressing human DOR, [3H]diprenorphine
T3 construct: host or cells: CHO (CHO-hDOR)
Description: as §2
(§5) Rat brain membranes were incubated with either [^3H]DAMGO (1 nM, 45 min, 35 °C) or [^3H][Ile^5,6]deltorphin II (0.5 nM, 45 min, 35 °C) for labeling MOR or DOR receptors, respectively. Guinea-pig brain membranes were incubated with [^3H]U69,593 (1 nM, 30 min, 30 °C) for labeling KOR. Binding assays with CHO cell membranes were conducted at 25 °C for 60 min using [^3H]DAMGO (1 nM) or [^3H]diprenorphine (0.2 nM) for labeling MOR or DOR, respectively. Nonspecific binding was determined using 10 μM naloxone (rodent brain) or 1–10 μM of the unlabeled counterpart of each radioligand (CHO cells). Reactions were terminated by rapid filtration through Whatman glass fiber GF/C filters. Filters were washed three times with 5 mL of ice-cold 50 mM Tris-HCl buffer (pH 7.4) using a Brandel M24R cell harvester (Gaithersburg, MD). Radioactivity retained on the filters was counted by liquid scintillation counting using a Beckman Coulter LS6500 (Beckman Coulter Inc., Fullerton, CA). All binding experiments were performed in duplicate and repeated at least three times.
aDetermined in competition radioligand binding assays using CHO cell membranes expressing
human MOR and DOR. Values represent the mean ± SEM of three independent experiments each

DOR [4] = target: T3, DOR; assay: [35S]GTPγS binding assay, CHO-hDOR membranes; format: biochemical; conditions: for EC50: [35S]GTPγS, CHO human DOR membranes; for Emax: relative to reference full agonist DPDPE, read-out: DOR % stim.
Description: as §1, §2, §3, §4

male CD1 mice = assay: acetic acid-induced writhing assay after sc administration; format: in vivo, mouse; conditions: for ED50: Mus musculus, 0.5 h, read-out: ED50 (95% CI), mice, sc, inhibition of writhing 30 min after drug administration; for ED50 (95% CI): mice, inhibition of writhing 30 min after drug administration; for increased antinociceptive potency vs comparator: writhing assay, 3a vs 3b, 4a vs 4b, 16b vs 7a (so in the source)
Description: Solutions of test compounds were prepared in sterile physiological 0.9% saline and further diluted to working doses in saline solution. Test compounds or saline (control) were administered by sc route in a volume of 10 μL/1 g of body weight. All doses are expressed in terms of salts. Separate groups of mice received the respective dose of compound, and individual mice were only used once for behavioral testing.
Writhing was induced in male CD1 mice by ip injection of a 0.6% acetic acid aqueous solution as described previously.[48],[62] Groups of mice were administered sc different doses of test compound or saline (control), and 5 min prior to testing (25 min after drug or saline), each animal received an ip injection of acetic acid solution. Each mouse was placed in individual transparent Plexiglas chambers, and the number of writhes was counted during a 10 min observation period. […] For the antagonism study, naloxone methiodide was sc co-administered with the respective opioid agonist, and writhing was assessed as described above.
as §4

MOR [5] = target: T4, MOR (Rattus norvegicus, UniProt P33535); assay: competition radioligand binding, rat brain membranes, [3H]DAMGO; conditions: for Ki: rat brain membranes, read-out: opioid receptor binding Ki MOR; for Ki ratio MOR/DOR/KOR: from Ki in rat (MOR, DOR) and guinea-pig (KOR) brain membranes
T4 construct: Membranes were prepared from Sprague-Dawley rat brains or guinea-pig brains according to the described procedures; tissue Labortierkunde und Laborgenetik, Medizinische Universität Wien; host or cells: Sprague-Dawley rat brain without cerebella
Description: (§6) Competition binding assays using rat brain (MOR and DOR) and guinea-pig brain (KOR) membranes (Table 1) were performed according to published procedures.[44],[49] […] In addition, we have assessed binding at the human opioid receptors stably transfected in Chinese hamster ovary (CHO) cells (Table S1).
(§7) Membranes were prepared from Sprague-Dawley rat brains or guinea-pig brains according to the described procedures.[44],[45] Brains without cerebella were homogenized on ice in 5 vol/wt of ice-cold 50 mM Tris-HCl buffer (pH 7.4) and diluted in 30 vol/wt of the same buffer. After centrifugation at 40 000g for 20 min at 4 °C, the pellets were resuspended in 30 vol/wt of 50 mM Tris-HCl buffer (pH 7.4) and incubated at 37 °C for 30 min. The centrifugation step described above was repeated, and the final pellets were resuspended in 5 vol/wt of 50 mM Tris-HCl buffer (pH 7.4) containing 0.32 M sucrose and stored at −80 °C until use.
as §5, §4

KOR [6] = target: T5, KOR (Cavia porcellus, UniProt P41144); assay: competition radioligand binding, guinea-pig brain membranes, [3H]U69,593; conditions: guinea-pig brain membranes; read-out: opioid receptor binding Ki KOR
T5 construct: Membranes were prepared from Sprague-Dawley rat brains or guinea-pig brains according to the described procedures; tissue Labortierkunde und Laborgenetik, Medizinische Universität Wien; host or cells: guinea-pig brain without cerebella
Description: as §6, §7, §5, §4

DOR [7] = target: T6, DOR (Rattus norvegicus, UniProt P33533); assay: competition radioligand binding, rat brain membranes, [3H][Ile5,6]deltorphin II; conditions: rat brain membranes; read-out: opioid receptor binding Ki DOR
T6 construct: Membranes were prepared from Sprague-Dawley rat brains or guinea-pig brains according to the described procedures; tissue Labortierkunde und Laborgenetik, Medizinische Universität Wien; host or cells: Sprague-Dawley rat brain without cerebella
Description: as §6, §7, §5, §4

[8] = relative to reference full agonist DAMGO

SMILES	Emax (MOR [1]; [8]) [%]	EC50 (KOR [2]) [nM]	Emax (KOR [2]) [%]	Ki (DOR [3]) [nM]	EC50 (DOR [4]) [nM]	Emax (DOR [4]) [%]	ED50 (male CD1 mice) [mg/kg]	ED50 (95% CI) (male CD1 mice)	increased antinociceptive potency vs comparator (male CD1 mice) [times]	functional profile at KOR (full/partial agonist) (KOR [2])	EC50 (MOR [1]) [nM]	Ki (MOR [5]) [nM]	Ki (KOR [6]) [nM]	Ki (DOR [7]) [nM]	Ki ratio MOR/DOR/KOR (MOR [5])	functional profile at MOR (full/partial agonist) (MOR [1]; full agonist ≥85% of the response to DAMGO)	MOR % stim. (MOR [1]; [8]) [%]	increase in MOR binding affinity vs comparator (MOR [5]; rat brain, 17b vs 4b, 16a/b vs 7a/b, 22a/b vs 7a, 7b and 9b, 14a vs 14b)
CO[C@@]12CC[C@H](N[C@@H](C)C(=O)O)[C@@H]3Oc4c(O)ccc5c4[C@@]31CCN(C)[C@@H]2C5 [Compound 3a]	97 ± 5	214 ± 71	51 ± 3	26 ± 3.5	9.55 ± 4.47	93 ± 9	< 0.02	16.0 (5.45–47.0) μg/kg	5									
CO[C@@]12CC[C@@H](N[C@@H](C)C(=O)O)[C@@H]3Oc4c(O)ccc5c4[C@@]31CCN(C)[C@@H]2C5 [Compound 3b]	87 ± 6	392 ± 160	64 ± 9	8.43 ± 2.1	5.2 ± 1.7	104 ± 6	0.0863			partial agonist								
CO[C@@]12CC[C@H](N[C@@H](Cc3ccc(O)cc3)C(=O)O)[C@@H]3Oc4c(O)ccc5c4[C@@]31CCN(C)[C@@H]2C5.Cl.Cl [Compound 9a, (2S)-2-[(4,5α-Epoxy-3-hydroxy-14β-methoxy-17-methylmorphinan-6α-yl)amino]-3-(4-hydroxyphenyl)propionic Acid Dihydrochloride]	92 ± 2	100 ± 6	62 ± 8		1.76 ± 0.22	88 ± 6	< 0.02	14.6 (5.15–41.7) μg/kg			1.87 ± 0.44	0.83 ± 0.04	39.5 ± 0.2	2.18 ± 0.98				
CO[C@@]12CC[C@H](N[C@@H](CC(=O)O)C(=O)O)[C@@H]3Oc4c(O)ccc5c4[C@@]31CCN(C)[C@@H]2C5 [Compound 13a, (2S)-2-[(4,5α-Epoxy-3-hydroxy-14β-methoxy-17-methylmorphinan-6α-yl)-amino]butanedioic Acid Dihydrochloride]	90 ± 7	2990 ± 659	83 ± 17		10.1 ± 3.8	97 ± 3	0.0382				4.1 ± 1.29	1.36 ± 0.05	50.2 ± 9.2	14.6 ± 3.6	1/11/37			
CO[C@@]12CC[C@@H](N[C@@H](C(=O)O)C(C)C)[C@@H]3Oc4c(O)ccc5c4[C@@]31CCN(C)[C@@H]2C5 [Compound 16b]	101	1280 ± 283	98 ± 16		1.3 ± 0.64	99 ± 0.2	< 0.02	14.0 (5.90–33.3) μg/kg	8	full agonists	2.38 ± 0.77	1.02 ± 0.07	159 ± 17	1.68 ± 0.16		full agonist	101 ± 5	2–3 times
CO[C@@]12CC[C@H](NCCC(=O)O)[C@@H]3Oc4c(O)ccc5c4[C@@]31CCN(C)[C@@H]2C5 [Compound 20a, 3-[(4,5α-Epoxy-3-hydroxy-14β-methoxy-17-methylmorphinan-6α-yl)amino]propionic Acid Dihydrochloride]	99 ± 7	186 ± 15	78 ± 9		96.4 ± 8.7	97 ± 2	0.0312				3.52 ± 1.65	1.3 ± 0.08	182 ± 8	60 ± 1.9	1/46/140			
CO[C@@]12CC[C@H](NCCCC(=O)O)[C@@H]3Oc4c(O)ccc5c4[C@@]31CCN(C)[C@@H]2C5 [Compound 21a]	103 ± 4	2030 ± 253	104 ± 9		34.4 ± 6.5	103 ± 1	0.0419				2.88 ± 0.82	0.77 ± 0.07	45.6 ± 4.4	12.5 ± 0.7	1/16/59			
